Data taken from US7704990B2, “Agents for preventing and treating disorders involving modulation of the RyR receptors” (The Trustees of Columbia University in the City of New York, priority 2005, dated 2010).

Legend:
RyR1 [1] = molecular target: T1, RyR1 (Mus musculus, UniProt E9PZQ0); assay: Single-channel recordings of RyR1 from soleus muscle of mdx mice; assay type: biochemical; settings: 1.0 μM JTV-519, cytoplasmic Ca2+ 150 nM, vs untreated wild-type
T1 construct: single channel current trace of RyR1 from soleus muscle of control (wild-type) mouse; from tissue; host or cells: skeletal (soleus) muscle of mdx mice or of wild-type mice with heart failure
Excerpt: Embodiments A and B are, respectively, a single channel current trace and an amplitude histogram of RyR1 from soleus muscle of a control (wild-type) mouse under resting conditions. Embodiments C and D are, respectively, a single channel current trace and an amplitude histogram of RyR1 from soleus muscle of an mdx mouse.
In FIG. 11, channel openings are represented as upward deflections; ‘c’ indicates the closed state; and 4 pA current open amplitude is indicated by dash. Upper traces represent 5 secs and lower traces 500 ms; dotted lines indicate subconductance states.
Increased Po in mdx mice is consistent with intracellular Ca^2+ leak. The amplitude histograms in embodiments B, D, and F show multiple subconductance states consistent with calstabin1 (FKBP12) depletion in RyR1 from mdx soleus muscle.

[2] = molecular target: PKA phosphorylated RyR1 / calstabin1 (Homo sapiens, UniProt P21817); assay: Calstabin1 binding to immunoprecipitated PKA phosphorylated skeletal RyR1 at increasing JTV519 concentrations
Sequence of PKA phosphorylated RyR1 / calstabin1 (P21817 whole entry): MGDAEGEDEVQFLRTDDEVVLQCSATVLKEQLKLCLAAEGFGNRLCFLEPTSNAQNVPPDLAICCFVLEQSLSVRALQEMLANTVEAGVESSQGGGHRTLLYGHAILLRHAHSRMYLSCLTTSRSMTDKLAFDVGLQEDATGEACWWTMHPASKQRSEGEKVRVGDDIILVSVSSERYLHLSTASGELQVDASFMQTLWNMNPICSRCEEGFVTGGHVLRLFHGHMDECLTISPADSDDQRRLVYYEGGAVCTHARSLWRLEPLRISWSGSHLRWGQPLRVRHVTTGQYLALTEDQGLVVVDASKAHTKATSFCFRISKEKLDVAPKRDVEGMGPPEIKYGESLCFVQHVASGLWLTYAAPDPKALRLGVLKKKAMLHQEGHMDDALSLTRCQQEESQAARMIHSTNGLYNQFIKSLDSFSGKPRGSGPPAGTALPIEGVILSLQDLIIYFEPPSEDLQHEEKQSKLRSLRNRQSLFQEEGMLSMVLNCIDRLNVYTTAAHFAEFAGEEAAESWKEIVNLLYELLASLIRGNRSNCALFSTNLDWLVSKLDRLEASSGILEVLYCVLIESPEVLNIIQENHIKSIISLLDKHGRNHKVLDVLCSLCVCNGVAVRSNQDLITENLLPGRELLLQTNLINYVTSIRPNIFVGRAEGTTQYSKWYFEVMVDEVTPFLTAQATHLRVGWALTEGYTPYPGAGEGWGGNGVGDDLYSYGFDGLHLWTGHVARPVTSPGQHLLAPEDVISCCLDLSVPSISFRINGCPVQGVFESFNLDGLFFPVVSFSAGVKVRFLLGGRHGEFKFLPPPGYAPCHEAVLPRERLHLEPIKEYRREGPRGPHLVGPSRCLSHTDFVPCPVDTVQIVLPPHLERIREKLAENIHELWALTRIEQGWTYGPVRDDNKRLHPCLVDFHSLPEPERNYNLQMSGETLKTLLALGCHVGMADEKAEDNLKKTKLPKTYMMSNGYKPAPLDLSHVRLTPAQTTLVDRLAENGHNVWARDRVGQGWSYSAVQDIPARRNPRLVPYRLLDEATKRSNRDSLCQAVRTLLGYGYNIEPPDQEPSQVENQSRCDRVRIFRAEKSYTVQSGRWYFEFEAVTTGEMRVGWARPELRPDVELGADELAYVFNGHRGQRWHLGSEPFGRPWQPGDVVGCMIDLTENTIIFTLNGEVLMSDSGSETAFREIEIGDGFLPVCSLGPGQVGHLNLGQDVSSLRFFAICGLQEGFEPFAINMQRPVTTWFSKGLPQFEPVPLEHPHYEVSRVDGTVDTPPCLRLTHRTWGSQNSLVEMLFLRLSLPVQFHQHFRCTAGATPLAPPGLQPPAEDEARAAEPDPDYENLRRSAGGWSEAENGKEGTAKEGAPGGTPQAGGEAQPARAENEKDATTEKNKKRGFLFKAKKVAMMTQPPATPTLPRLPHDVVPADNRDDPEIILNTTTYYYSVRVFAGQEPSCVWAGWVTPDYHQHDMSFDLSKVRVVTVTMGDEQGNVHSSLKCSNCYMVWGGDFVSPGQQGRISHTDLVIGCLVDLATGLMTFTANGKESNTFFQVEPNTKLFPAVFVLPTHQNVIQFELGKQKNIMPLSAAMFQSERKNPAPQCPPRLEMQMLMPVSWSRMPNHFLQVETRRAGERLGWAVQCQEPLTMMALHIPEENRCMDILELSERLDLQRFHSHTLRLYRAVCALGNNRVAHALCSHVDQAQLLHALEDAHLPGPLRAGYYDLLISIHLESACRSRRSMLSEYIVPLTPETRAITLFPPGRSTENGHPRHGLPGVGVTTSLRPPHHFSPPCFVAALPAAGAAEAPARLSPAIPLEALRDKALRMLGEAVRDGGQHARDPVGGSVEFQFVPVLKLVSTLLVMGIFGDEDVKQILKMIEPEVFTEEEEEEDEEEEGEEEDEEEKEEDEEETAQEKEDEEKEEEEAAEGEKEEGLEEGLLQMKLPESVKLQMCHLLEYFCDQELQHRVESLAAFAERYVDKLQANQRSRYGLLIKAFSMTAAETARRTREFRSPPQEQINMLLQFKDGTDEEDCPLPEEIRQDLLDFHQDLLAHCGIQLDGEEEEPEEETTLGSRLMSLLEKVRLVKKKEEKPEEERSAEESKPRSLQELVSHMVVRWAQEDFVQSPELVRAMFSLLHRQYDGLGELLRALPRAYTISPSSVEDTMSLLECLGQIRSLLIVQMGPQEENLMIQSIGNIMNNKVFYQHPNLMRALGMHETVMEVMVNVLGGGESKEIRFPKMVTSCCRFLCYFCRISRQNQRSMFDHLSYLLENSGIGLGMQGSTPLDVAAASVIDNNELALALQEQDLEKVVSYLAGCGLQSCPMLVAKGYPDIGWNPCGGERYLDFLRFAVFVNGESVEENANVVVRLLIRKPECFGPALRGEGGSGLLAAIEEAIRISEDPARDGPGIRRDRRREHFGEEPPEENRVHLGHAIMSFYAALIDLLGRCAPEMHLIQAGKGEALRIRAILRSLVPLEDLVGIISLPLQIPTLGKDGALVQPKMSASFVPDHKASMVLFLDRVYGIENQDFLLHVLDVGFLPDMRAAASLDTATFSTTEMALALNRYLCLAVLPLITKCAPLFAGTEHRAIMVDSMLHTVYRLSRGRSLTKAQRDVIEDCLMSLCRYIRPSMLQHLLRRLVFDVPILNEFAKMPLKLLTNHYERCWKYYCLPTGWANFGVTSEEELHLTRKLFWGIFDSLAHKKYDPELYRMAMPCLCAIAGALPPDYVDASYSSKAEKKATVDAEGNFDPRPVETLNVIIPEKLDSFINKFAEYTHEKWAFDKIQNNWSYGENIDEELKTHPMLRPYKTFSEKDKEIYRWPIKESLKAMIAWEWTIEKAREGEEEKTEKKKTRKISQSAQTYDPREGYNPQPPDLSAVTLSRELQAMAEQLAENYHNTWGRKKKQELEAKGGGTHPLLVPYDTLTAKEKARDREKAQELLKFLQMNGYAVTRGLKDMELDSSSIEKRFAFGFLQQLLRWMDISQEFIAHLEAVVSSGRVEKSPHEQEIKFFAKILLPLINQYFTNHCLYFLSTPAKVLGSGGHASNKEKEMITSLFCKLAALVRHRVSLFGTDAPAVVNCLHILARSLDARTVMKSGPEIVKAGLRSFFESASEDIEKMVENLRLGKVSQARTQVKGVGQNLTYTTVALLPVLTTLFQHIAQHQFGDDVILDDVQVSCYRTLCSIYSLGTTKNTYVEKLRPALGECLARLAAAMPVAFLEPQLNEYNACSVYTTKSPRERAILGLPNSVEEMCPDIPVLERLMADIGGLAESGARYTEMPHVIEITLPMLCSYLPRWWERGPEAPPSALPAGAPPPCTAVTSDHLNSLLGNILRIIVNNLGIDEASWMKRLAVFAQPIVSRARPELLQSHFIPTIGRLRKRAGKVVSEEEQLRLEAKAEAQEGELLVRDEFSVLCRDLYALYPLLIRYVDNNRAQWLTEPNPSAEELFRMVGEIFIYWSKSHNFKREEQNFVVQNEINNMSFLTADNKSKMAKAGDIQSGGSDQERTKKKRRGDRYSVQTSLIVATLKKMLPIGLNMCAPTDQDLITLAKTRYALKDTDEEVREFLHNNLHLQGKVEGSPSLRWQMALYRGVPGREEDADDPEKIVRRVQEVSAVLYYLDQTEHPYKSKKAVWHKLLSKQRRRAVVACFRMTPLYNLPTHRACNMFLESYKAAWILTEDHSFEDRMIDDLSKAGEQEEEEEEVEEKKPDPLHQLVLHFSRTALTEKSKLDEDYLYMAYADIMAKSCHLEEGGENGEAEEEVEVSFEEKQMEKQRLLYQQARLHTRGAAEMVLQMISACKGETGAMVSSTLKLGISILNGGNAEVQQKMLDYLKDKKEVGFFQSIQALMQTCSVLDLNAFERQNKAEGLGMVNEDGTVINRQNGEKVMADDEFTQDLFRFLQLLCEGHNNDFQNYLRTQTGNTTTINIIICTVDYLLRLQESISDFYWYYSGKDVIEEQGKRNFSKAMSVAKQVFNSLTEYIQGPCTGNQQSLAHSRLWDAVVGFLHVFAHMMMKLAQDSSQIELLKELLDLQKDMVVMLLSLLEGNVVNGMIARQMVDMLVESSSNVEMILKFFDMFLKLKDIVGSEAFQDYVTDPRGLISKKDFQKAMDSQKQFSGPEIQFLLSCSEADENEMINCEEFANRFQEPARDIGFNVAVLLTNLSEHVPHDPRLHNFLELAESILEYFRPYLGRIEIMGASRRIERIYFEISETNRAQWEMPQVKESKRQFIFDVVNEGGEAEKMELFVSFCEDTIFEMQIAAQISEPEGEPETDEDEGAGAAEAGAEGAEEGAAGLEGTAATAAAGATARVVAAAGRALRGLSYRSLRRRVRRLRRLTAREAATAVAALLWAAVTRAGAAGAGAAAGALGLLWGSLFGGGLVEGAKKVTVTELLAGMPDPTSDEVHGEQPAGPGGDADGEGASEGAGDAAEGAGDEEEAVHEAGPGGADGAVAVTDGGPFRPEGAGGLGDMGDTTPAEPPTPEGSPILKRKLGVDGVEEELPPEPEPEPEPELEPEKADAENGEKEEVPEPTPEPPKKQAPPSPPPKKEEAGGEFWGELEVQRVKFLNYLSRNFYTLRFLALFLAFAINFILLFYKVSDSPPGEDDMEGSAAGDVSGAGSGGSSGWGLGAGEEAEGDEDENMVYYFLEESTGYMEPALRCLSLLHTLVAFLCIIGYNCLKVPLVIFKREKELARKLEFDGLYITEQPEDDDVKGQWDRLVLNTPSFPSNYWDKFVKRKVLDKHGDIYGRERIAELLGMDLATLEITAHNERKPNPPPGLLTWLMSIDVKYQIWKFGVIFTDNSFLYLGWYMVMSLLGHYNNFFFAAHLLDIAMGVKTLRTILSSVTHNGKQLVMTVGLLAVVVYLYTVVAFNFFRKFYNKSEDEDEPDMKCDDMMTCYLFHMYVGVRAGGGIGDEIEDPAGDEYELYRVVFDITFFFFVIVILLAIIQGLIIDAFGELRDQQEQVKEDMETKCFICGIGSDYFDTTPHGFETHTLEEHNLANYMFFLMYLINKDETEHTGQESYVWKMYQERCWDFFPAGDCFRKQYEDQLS
Sequence of PKA phosphorylated RyR1 / calstabin1 (P62942 2-108 partner limits assumed): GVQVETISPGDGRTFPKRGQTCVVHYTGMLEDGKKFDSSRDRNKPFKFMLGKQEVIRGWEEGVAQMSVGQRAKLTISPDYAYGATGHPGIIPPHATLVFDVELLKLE
Excerpt: Sediment represents only calstabin bound to RyR.

soleus muscle = assay: Soleus muscle fatigue time in mice with heart failure from myocardial infarction; assay type: in vivo, mouse
Excerpt: Soleus muscles from JTV519-treated wild-type mice or calstabin2^−/− mice with heart failure from myocardial infarction are more resistant to fatigue (P<0.05) compared to placebo-treated mice. After completion of treatment, soleus muscle was dissected and mounted in a tissue bath to assess isolated skeletal muscle function. Representative 50% of maximal tetanic force fatigue time tracings are shown for wild-type and calstabin2^−/− mice, treated with JTV519 or placebo, in embodiment A. In embodiment B are shown bar graph summarizing mean time to fatigue.

RyR1 [3] = molecular target: T1, RyR1; assay: RyR1 single-channel tracings from skeletal muscle of heart failure mice treated in vivo; settings: mice with heart failure and increased muscle fatigue, 150 nM cytoplasmic Ca2+
Excerpt: Embodiments A and C are single channel current traces of wild-type mice with heart failure treated with placebo (A) and JTV-519 (C). Embodiments B and D are amplitude histograms for wild-type mice with heart failure treated with placebo (B) and JTV-519 (D).
For the amplitude histograms in embodiment B and D, amplitude is represented on the x axis, and events indicates the number of channel openings. Po, To and Tc values correspond to the representative traces. Treatment as indicated on top of traces.

RyR1 / calstabin1 = molecular target: T2, RyR1 / calstabin1 (Mus musculus, UniProt E9PZQ0); assay: RyR1 PKA phosphorylation and calstabin1 bound to RyR1 in soleus muscle of heart failure mice; assay type: in vivo
T2 construct: increase of calstabin1 in the RyR1 complex in soleus muscles in vivo; from tissue; host or cells: soleus muscle of wild-type and calstabin2-/- mice with post-infarction heart failure
Procedure: Embodiment A are bar graphs of PKA phosphorylation of RyR1 at Ser-2844 in mice, which corresponds to Ser-2843 in humans.
Equivalent amounts of RyR1 were immunoprecipitated with an antibody against RyR1. Embodiment A are bar graphs show the amount of PKA phosphorylation of RyR1 at Ser-2844 in mice (corresponding to human Ser-2843). […] Embodiment B are bar graphs showing the amount of calstabin1 bound to RyR1 from wild-type or calstabin2^−/− mice treated with JTV519 or placebo. Mice were treated with JTV519 by implantable osmotic minipumps using a dose of 0.5 mg/kg/day.

COc1ccc2c(c1)CN(C(=O)CCN1CCC(Cc3ccccc3)CC1)CCS2.Cl [JTV-519, 4-[3-(4-benzylpiperidin-1-yl)propionyl]-7-methoxy-2,3,4,5-tetrahydro-1,4-benzothiazepine monohydrochloride]
RyR1 channel activity (RyR1 [1]): normal activity
binding affinity of calstabin1 for PKA phosphorylated RyR1 ([2]; relative to non-PKA phosphorylated RyR1): restored
concentration that increased the binding affinity of calstabin for RyR ([2]; skeletal RyR1 with calstabin1, immunoblotting): ≥ 50 nM
soleus muscle fatigue times (soleus muscle; calstabin2-/- knockout mice with heart failure): significantly improved
soleus muscle fatigue times (soleus muscle; wild-type mice with heart failure, vs placebo): improved soleus muscle fatigue times
RyR1 channel gating in skeletal muscle (RyR1 [3]): normalized
resting heart rate or other ECG parameters (FKBP12.6+/- mice; 0.5 mg/kg per hour for 7 days, implanted osmotic mini-pump): no effect
plasma levels that prevent cardiac arrhythmias and sudden cardiac death (FKBP12.6+/- mice; FKBP12.6+/- mice, exercise testing and 0.5 mg/kg epinephrine): 1 µM
exercise-induced ventricular arrhythmias (FKBP12.6+/- mice; haploinsufficient calstabin (FKBP12.6)+/- mice): prevention
calstabin1 in the RyR1 complex in soleus muscle (RyR1 / calstabin1; wild-type and calstabin2-/- mice, implantable osmotic minipumps, 0.5 mg/kg/day): highly significant increase
RyR1 PKA phosphorylation at Ser-2844 (RyR1 / calstabin1; wild-type animals): significant decrease
